Test results reported in PubChem BioAssay AID1963427 (Molecular Pharmacology Branch, DTP, NCI, 2024).

Test system: 317291-083-R-J1-PDC complex spheroid growth
Test: Anticancer human tumor 317291-083-R-J1-PDC patient-derived soft tissue sarcoma cell line growth inhibition [Asc]
Details: for IC50: curve of first compound; for viability, T/C: stronger effect = lower value
Protocol: Multicellular complex tumor spheroid response to apoptosis pathway targeting inhibitors Alrizomadlin, Pelcitoclax, and Dasminapant in combination with a variety of drugs and investigational agents in selected tumor cell lines
The MDM2 inhibitor alrizomadlin, the Bcl-2/Bcl-xL inhibitor pelcitoclax, and the IAPs inhibitor dasminapant were evaluated both individually and in combination with standard of care and investigational anticancer small molecules within a complex spheroid model of solid tumors. . Complex spheroids include a stromal component modeled by human endothelial cells (HUVEC) and fibroblasts modeled by human mesenchymal stem cells (MSCs). The concentration ranges selected for each drug and investigational agent were based upon clinically achievable concentrations if the clinical Cmax of the agent was known.
Compounds. The drugs and investigational agents: alrizomadlin (APG-115; NSC831270), pelcitoclax (APG-1252; NSC835773), dasminapant (APG-1387;NSC834197), TAK-243 (NSC785004), copanlisib (NSC809693), olaparib (NSC753686), talazoparib (NSC767125), cobimetinib (NSC 768068), eltanexor (KPT-8602, NSC 794443), abemaciclib (NSC 768073), sotorasib (NSC818433), adagrasib (NSC 831453), MRTX-1133 (NSC 836407), Iadademestat (ORY1001, NSC 806812), and RMC-4630 (NSC839698), were obtained from the NCI Developmental Therapeutics Program Chemical Repository. The FDA-approved anticancer drug set is available from the Developmental Therapeutics Program at https://dtp.cancer.gov/organization/dscb/obtaining/available plates.htm. […] The stock solutions were prepared in dimethyl sulfoxide (DMSO, Sigma-Aldrich, St. Louis, MO, cat. D2650) at 800-fold the tested concentration and stored at -70 degrees C prior to their use. All drugs and investigational agents were tested over a range starting from a high concentration at or near the clinical Cmax and decreasing in half-log increments. If the clinical Cmax for an agent had not been determined, the highest concentration tested was 10 microM.
The patient-derived cancer (PDC) cell lines include five colon adenocarcinomas: 186277-243-T-J2-PDC, 616215-338-R-J1-PDC, 439559-082-T-J2-PDC, 463943-066-T-J2-PDC, and 519858-162-T-J1-PDC; three pancreatic carcinomas: 323965-272-R-J2-PDC, 521955-158-R6-J3-PDC, and 521955-158-R2-J5-PDC; two uterine sarcomas: 327498-152-R-J2-PDC and 993429-296-R-J1-PDC; two rhabdomyosarcomas: 755483-174-R-J1-PDC and 772245-204-R-J1-PDC; two soft tissue sarcomas: 126254-015-R-J1-PDC and 494315-158-R-J1-PDC; two malignant fibrous histiocytomas: 317291-083-R-J1-PDC and 596521-263-R-J1-PDC; two breast carcinomas: 171881-019-R-J1-PDC and 885512-296-R-J2-PDC; and one ovarian carcinoma: 6556581-035-R-J-PDC were obtained from the NCI PDMR, (https://pdmr.cancer.gov). The established cell lines HSSY-2 synovial sarcoma (RRID:CVCL 8719), SYO-1 synovial sarcoma (RRID:CVCL_7146), MPNST malignant peripheral neural sheath tumor were obtained from the Sloan Kettering Institute. The following established cell lines were purchased from the American Type Culture Collection (ATCC, Manassas, VA), Sor the received from the NCI repository:, PANC-1 pancreatic carcinoma (CRL-1469, RRID:CVCL_0480), OVCAR-5 ovarian carcinoma (RRID:CVCL_1628), OVCAR-8 ovarian carcinoma (RRID:CVCL_1629), , MCF-7 breast carcinoma (CRL-12584, RRID:CVCL_0031), MDA-MB-231 breast carcinoma (CRL-12532, RRID:CVCL_0062), NCI-H1876 small cell lung carcinoma (CRL-5902, RRID:CVCL_1503), NCI-H510A small cell lung carcinoma (HTB-184, RRID:CVCL_1565), NCI-H1417 (CRL-5869, RRID:CVCL_1469), and NCI-H196 small cell lung carcinoma (CRL-5823, RRID:CVCL_1509). Dr. Peter Houghton (Greehey Children's Cancer Research Institute, University of Texas Health Science Center, San Antonio, TX) provided Rh-18 rhabdomyosarcoma (RRID:CVCL_1659). Pooled donor human umbilical vein endothelial cells (HUVEC, Lonza, cat. CC-2519) and human mesenchymal stem cells (hMSC, Lonza, cat. PT-2501) were purchased from Lonza (Walkersville, MD).
Cell Culture. […]

[1] = second compound 0.00949 µM, first compound 0.00316 µM
[2] = second compound 0.00949 µM, first compound 0.01 µM
[3] = second compound 0.00949 µM, first compound 0.0316 µM
[4] = second compound 0.00949 µM, first compound 0.1 µM
[5] = second compound 0.00949 µM, first compound 0.316 µM
[6] = second compound 0.00949 µM, first compound 1 µM
[7] = second compound 0.03 µM, first compound 0.00316 µM
[8] = second compound 0.03 µM, first compound 0.01 µM
[9] = second compound 0.03 µM, first compound 0.0316 µM
[10] = second compound 0.03 µM, first compound 0.1 µM
[11] = second compound 0.03 µM, first compound 0.316 µM
[12] = second compound 0.03 µM, first compound 1 µM
[13] = second compound 0.0949 µM, first compound 0.00316 µM
[14] = second compound 0.0949 µM, first compound 0.01 µM
[15] = second compound 0.0949 µM, first compound 0.0316 µM
[16] = second compound 0.0949 µM, first compound 0.1 µM
[17] = second compound 0.0949 µM, first compound 0.316 µM
[18] = second compound 0.0949 µM, first compound 1 µM
[19] = second compound 0.3 µM, first compound 0.00316 µM
[20] = second compound 0.3 µM, first compound 0.01 µM
[21] = second compound 0.3 µM, first compound 0.0316 µM
[22] = second compound 0.3 µM, first compound 0.1 µM
[23] = second compound 0.3 µM, first compound 0.316 µM
[24] = second compound 0.3 µM, first compound 1 µM
[25] = second compound 0.949 µM, first compound 0.00316 µM
[26] = second compound 0.949 µM, first compound 0.01 µM
[27] = second compound 0.949 µM, first compound 0.0316 µM
[28] = second compound 0.949 µM, first compound 0.1 µM
[29] = second compound 0.949 µM, first compound 0.316 µM
[30] = second compound 0.949 µM, first compound 1 µM
[31] = second compound 3 µM, first compound 0.00316 µM
[32] = second compound 3 µM, first compound 0.01 µM
[33] = second compound 3 µM, first compound 0.0316 µM
[34] = second compound 3 µM, first compound 0.1 µM
[35] = second compound 3 µM, first compound 0.316 µM
[36] = second compound 3 µM, first compound 1 µM
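Also: compound exposure lasted seven days after spheroids formed for three days.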
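For viability, T/C in this document: 100% = DMSO vehicle control wells.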

What does the source list for `CCN1CCN(Cc2ccc(Nc3ncc(F)c(-c4cc(F)c5nc(C)n(C(C)C)c5c4)n3)nc2)CC1` + CCN1C(C(=O)NC23CCC(C(=O)O)(CC2)CC3)C(c2cccc(Cl)c2F)C2(C(=O)Nc3cc(Cl)ccc32)C12CCCCC2?
IC50 (second compound 0.00949 µM): > 1000 nM; IC50 (second compound 0.03 µM): > 1000 nM; IC50 (second compound 0.0949 µM): 814 nM; IC50 (second compound 0.3 µM): > 1000 nM; IC50 (second compound 0.949 µM): 837 nM; IC50 (second compound 3 µM): > 1000 nM; viability, T/C [1]: 95%; viability, T/C [2]: 95.8%; viability, T/C [3]: 100%; viability, T/C [4]: 115%; viability, T/C [5]: 91.2%; viability, T/C [6]: 55.4%; viability, T/C [7]: 99.7%; viability, T/C [8]: 101%; viability, T/C [9]: 97.9%; viability, T/C [10]: 103%; viability, T/C [11]: 80.1%; viability, T/C [12]: 53%; viability, T/C [13]: 97.7%; viability, T/C [14]: 89.3%; viability, T/C [15]: 97%; viability, T/C [16]: 112%; viability, T/C [17]: 88.4%; viability, T/C [18]: 41.6%; viability, T/C [19]: 100%; viability, T/C [20]: 93.1%; viability, T/C [21]: 80.6%; viability, T/C [22]: 86.4%; viability, T/C [23]: 68.1%; viability, T/C [24]: 79.6%; viability, T/C [25]: 106%; viability, T/C [26]: 96.7%; viability, T/C [27]: 79.1%; viability, T/C [28]: 91.1%; viability, T/C [29]: 73.1%; viability, T/C [30]: 44.5%; viability, T/C [31]: 77.5%; viability, T/C [32]: 77%; viability, T/C [33]: 78.9%; viability, T/C [34]: 72.2%; viability, T/C [35]: 56.6%; viability, T/C [36]: 60.9%

With `O=C(c1ccc(F)c(F)c1Nc1ccc(I)cc1F)N1CC(O)([C@@H]2CCCCN2)C1` + CCN1C(C(=O)NC23CCC(C(=O)O)(CC2)CC3)C(c2cccc(Cl)c2F)C2(C(=O)Nc3cc(Cl)ccc32)C12CCCCC2 as the molecule, how does the IC50 (second compound 0.00949 µM) read?
The IC50 was 540 nM.

And the IC50 (second compound 0.03 µM)?
Its IC50 is 448 nM.

What about the IC50 (second compound 0.0949 µM) of the same molecule?
Its IC50 is 549 nM.

What about the IC50 (second compound 0.3 µM) of the same molecule?
Its IC50 is 526 nM.

What about the IC50 (second compound 0.949 µM) of the same molecule?
The IC50 was 528 nM.

And the IC50 (second compound 3 µM)?
The IC50 was 389 nM.

And the viability, T/C [1]?
Its viability, T/C is 101%.

What about the viability, T/C [2] of the same molecule?
Its viability, T/C is 89%.

And the viability, T/C [3]?
Its viability, T/C is 106%.

What about the viability, T/C [4] of the same molecule?
Its viability, T/C is 101%.

And the viability, T/C [5]?
The viability, T/C was 71.9%.

What about the viability, T/C [6] of the same molecule?
Its viability, T/C is 24.8%.

What about the viability, T/C [7] of the same molecule?
The viability, T/C was 91.2%.

What about the viability, T/C [8] of the same molecule?
Its viability, T/C is 94.8%.

And the viability, T/C [9]?
Its viability, T/C is 85%.

What about the viability, T/C [10] of the same molecule?
The viability, T/C was 117%.

What about the viability, T/C [11] of the same molecule?
The viability, T/C was 64.9%.

What about the viability, T/C [12] of the same molecule?
Its viability, T/C is 15.8%.

And the viability, T/C [13]?
Its viability, T/C is 103%.

And the viability, T/C [14]?
Its viability, T/C is 90.8%.

And the viability, T/C [15]?
The viability, T/C was 98.2%.

What about the viability, T/C [16] of the same molecule?
Its viability, T/C is 113%.

What about the viability, T/C [17] of the same molecule?
The viability, T/C was 69.8%.

What about the viability, T/C [18] of the same molecule?
The viability, T/C was 28.4%.

What about the viability, T/C [19] of the same molecule?
The viability, T/C was 124%.

What about the viability, T/C [20] of the same molecule?
Its viability, T/C is 95.1%.

And the viability, T/C [21]?
Its viability, T/C is 86.3%.

What about the viability, T/C [22] of the same molecule?
Its viability, T/C is 107%.

What about the viability, T/C [23] of the same molecule?
The viability, T/C was 71.4%.

And the viability, T/C [24]?
The viability, T/C was 23%.

And the viability, T/C [25]?
Its viability, T/C is 105%.

And the viability, T/C [26]?
Its viability, T/C is 105%.

What about the viability, T/C [27] of the same molecule?
Its viability, T/C is 114%.

And the viability, T/C [28]?
Its viability, T/C is 104%.

What about the viability, T/C [29] of the same molecule?
Its viability, T/C is 72.2%.

What about the viability, T/C [30] of the same molecule?
The viability, T/C was 22.4%.

And the viability, T/C [31]?
Its viability, T/C is 105%.

What about the viability, T/C [32] of the same molecule?
Its viability, T/C is 92.7%.

And the viability, T/C [33]?
The viability, T/C was 96.8%.

What about the viability, T/C [34] of the same molecule?
The viability, T/C was 90.2%.

What about the viability, T/C [35] of the same molecule?
Its viability, T/C is 55.4%.

What about the viability, T/C [36] of the same molecule?
Its viability, T/C is 24.8%.
